Columns and labels:
[1] = tested on: SARS-CoV; experiment: Antiviral activity against SARS coronavirus; assay type: functional, organism-based; conditions: Severe acute respiratory syndrome-related coronavirus
[2] = target: Replicase polyprotein 1ab (Severe acute respiratory syndrome-related coronavirus, UniProt P0C6X7); experiment: Inhibition of SARS-CoV 3C-like protease by FRET based microplate assay

Compound: CCOC(=O)/C=C/[C@H](C[C@@H]1CCNC1=O)NC(=O)[C@@H](CC(=O)[C@@H](NC(=O)c1cc(C)on1)C(C)C)Cc1ccccc1
- IC50 [1]: 45 µM
- IC50 [2]: 870 µM

Compound: CCOC(=O)/C=C/[C@H](C[C@@H]1CCNC1=O)NC(=O)[C@H](CC=C(C)C)CC(=O)[C@@H](NC(=O)c1cc(C)on1)C(C)C
- IC50 [1]: 70 µM
- IC50 [2]: 800 µM

Compound: CCOC(=O)/C=C/[C@H](C[C@@H]1CCNC1=O)NC(=O)[C@H](Cc1ccccc1)NC(=O)[C@@H](NC(=O)[C@H](CO)NC(=O)OC(C)(C)C)C(C)C
- IC50 [1]: 100 µM
- IC50 [2]: 15 µM

Compound: CCOC(=O)/C=C/[C@H](C[C@@H]1CCNC1=O)NC(=O)[C@H](Cc1ccccc1)NC(=O)[C@@H](NC(=O)c1cc(C)on1)C(C)C
- IC50 [2]: 300 µM

Compound: CCOC(=O)/C=C/[C@H](C[C@@H]1CCNC1=O)NC(=O)[C@H](CC=C(C)C)CC(=O)[C@@H](NC(=O)[C@H](CO)NC(=O)OC(C)(C)C)C(C)C
- IC50 [1]: 75 µM
- IC50 [2]: 80 µM

Compound: CCOC(=O)/C=C/[C@H](C[C@@H]1CCNC1=O)NC(=O)[C@H](CC(C)C)NC(=O)[C@@H](NC(=O)c1cc(C)on1)C(C)C
- IC50 [2]: 200 µM

Compound: CCOC(=O)/C=C/[C@H](C[C@@H]1CCNC1=O)NC(=O)[C@H](CC(C)C)NC(=O)[C@@H](NC(=O)[C@H](CO)NC(=O)OC(C)(C)C)C(C)C
- IC50 [1]: 100 µM
- IC50 [2]: 10 µM

Reference: ChEMBL document CHEMBL1137503, “Structure-based design, synthesis, and biological evaluation of peptidomimetic SARS-CoV 3CLpro inhibitors” (Bioorg Med Chem Lett, 2007)
